Results: US20070117770A1, “Human ribosomal DNA (rDNA) and ribosomal RNA (rRNA) nucleic acids and uses thereof” (Cylene Pharmaceuticals, Inc., priority 2005, published 2007)
pIC50, pKd: −log10 of the molar value.

Tests used:
nucleolin = target: T1, nucleolin (Homo sapiens, UniProt P19338); assay: Filter-binding assay of 32P-labeled quadruplexes and Nucleolin; settings: for pKd: 0.2 nM 32P-labeled quadruplex, read-out: Kd, apparent dissociation constant of nucleolin protein and the nucleic acid ligand
T1 construct: without the N-terminal acidic stretches domain
Procedure: The assay also was conducted in a filter-binding format. […] The protein-quadruplex mixtures were incubated for 30 min at ambient temperature and filtered through mixed cellulose ester membrane filters (Millipore) with gentle suction. The filters were washed twice with […] of binding buffer, dried and OptiPhase ‘SuperMix’ scintillation cocktail (Perkin Elmer) was added to the wells. Radioactivity was assayed with MicroBeta scintillation counter (Perkin Elmer). Binding curves were constructed and apparent Kd's and Bmax's for the complexes were calculated using the GraphPad Prizm software program (GraphPad Software). In the following table, the nucleic acid ligand is designated in the first column using the nomenclature described herein; the second column provides the nucleotide sequence of the nucleic acid ligand; the third column is the conformation of the ligand as determined by circular dichroism (M is mixed, P is parallel, A is antiparallel, C is complex, SS is single-stranded and ND is not determined); the fourth column is the dissociation constant determined by the filter binding assay of nucleolin protein and the nucleic acid ligand; the fifth column is a Bmax constant determined by the filter binding assay, which is the percent of active nucleic acid ligand in each assay; and the sixth column presents the concentration of Compound A-1 required to dissociate half of the complexed nucleic acid ligand and nucleolin protein, as determined by the EMSA assay described above.

[1] = system: cMYC RNA synthesis, HCT-116; assay: PCR control assay of C-myc transcription; assay type: cell-based; settings: Homo sapiens, read-out: QPCRMYC IC50_HCT-116
Procedure: A control assay that detected effects of the compounds on C-myc transcription also was conducted using a primer/probe set purchased from ABI (TaqMan Gene Expression Assay with assay ID: Hs99999003_m1). The following assay protocol was utilized:
(§1) Mix • 1 ug RNA • 2.5 ul 10× Taq Man buffer • 5.5 ul 25 mM MgCl2 • 5 ul of a mix of dNTP (500 uM each) • 1.2 ul random hexamer primer (2.5 uM stock) • 0.5 ul RNase inhibitor (0.4 units/ul) • 0.6 ul Reverse Transcriptase (1.2 units/ul) • bring to 25 ul total volume with water
(§2) Mix • 5 ul Reverse Transcriptase reaction product • 12.5 ul 2×PCR mix • 1 uM forward primer • 1 uM reverse primer • 0.5 uM Taq Man probe • 500 nM Rox • Adjust to 25 ul final volume with water
(§3) PCR cycles • 95 degrees C. 1 minute • 40 cycles of • 95 degrees C. 15 seconds • 60 degrees C. 1 minute.
(§4) Fluorescence of digested label was detected and quantified. […] The effect of other compounds on rRNA synthesis also were assessed in the assay, and provided in the table hereafter are IC50 values of selected compounds pertaining to rRNA synthesis and cMYC RNA synthesis.

rRNA synthesis, HCT-116 = assay: PCR assay of rRNA synthesis from 45S rDNA (5' ETS probe); assay type: cell-based; settings: Homo sapiens; rRNA synthesis, HCT-116; read-out: QPCRrDNA IC50_HCT-116
Procedure: Assays were conducted to determine the effects of compounds on rRNA synthesis from 45S rDNA. In particular, compound A-1 at various concentrations was incubated with cells and tested for an effect on rRNA synthesis after a two hour or four hour incubation with the compound. Synthesized rRNA was quantified by a polymerase chain reaction (PCR) assay. A primer/probe set was designed using Primer Express software and synthesized by Applied Biosystems. The 5′ ETS Probe utilized had the following sequence (@ its 3′ end): 6FAM-TTG ATC CTG CCA GTA GC-MGBNFQ (SEQ ID NO:227). The primer sequences were as follows:
as §1, §2, §3, §4

T1 sequence (P19338 284-710 limits assumed): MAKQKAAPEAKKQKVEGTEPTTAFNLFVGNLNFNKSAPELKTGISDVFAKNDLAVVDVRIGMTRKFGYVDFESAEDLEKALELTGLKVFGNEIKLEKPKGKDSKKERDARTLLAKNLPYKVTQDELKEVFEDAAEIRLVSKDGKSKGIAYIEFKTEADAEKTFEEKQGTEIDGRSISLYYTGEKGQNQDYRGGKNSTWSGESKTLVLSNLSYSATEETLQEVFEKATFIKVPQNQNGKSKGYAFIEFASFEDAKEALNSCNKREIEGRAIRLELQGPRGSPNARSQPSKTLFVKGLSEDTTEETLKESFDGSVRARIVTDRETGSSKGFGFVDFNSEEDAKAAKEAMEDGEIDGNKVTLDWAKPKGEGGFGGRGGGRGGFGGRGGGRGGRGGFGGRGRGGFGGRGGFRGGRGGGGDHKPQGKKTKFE

pIC50 [1]	pIC50 (rRNA synthesis, HCT-116)	Compound	Bmax, percent of active nucleic acid ligand (nucleolin)	pKd (nucleolin)
–	–	AGGGGGTGGGCGCCGGGAGGGGGG (DNA, backbone and methylation of C not given here; listed as Homo sapiens) [Compound 8904T]	31%	9.40
–	–	AGGGCGGGCGGCGGGGCGGG (DNA, backbone and methylation of C not given here; listed as Homo sapiens) [Compound 7499T]	16%	8.96
–	–	GGGTCGGGGGGTGGGGCCCGGGCCGGGG (listed as DNA, chemistry not given here; listed as Homo sapiens) [Compound 2957NT]	66%	8.57
–	–	AGGGCGGACGGGAGGGAGCGAGCGGGCGCGGGGG (DNA, backbone and methylation of C not given here; listed as Homo sapiens) [Compound 3500T]	20%	8.96
–	–	AGGGGCGGGGGCGCGGGGAGGAGGGGTGGG (DNA, backbone and methylation of C not given here; listed as Homo sapiens) [Compound 9024T]	43%	9.52
6.52	7.30	CC(=O)N1CCN(c2c(F)cc3c(=O)c(C(=O)NCCN4CCCC4)cn4c3c2Oc2cc(Cl)ccc2-4)CC1 [Compound 4]	–	–
–	–	AGGGGACACCGGGGGGGCGCCGGGGG (DNA, backbone and methylation of C not given here; listed as Homo sapiens) [Compound 11888T]	47%	9.70
–	–	AGGGACGCCTGGGGAAGGGAGGGGG (DNA, backbone and methylation of C not given here; listed as Homo sapiens) [Compound 1310T]	50%	8.36
8.00	7.30	O=C(NCCN1CCCC1)c1cn2c3c(c(NCCN4CCCC4)c(F)cc3c1=O)Oc1ccccc1-2 [Compound 1]	–	–
–	–	GGGCCCGCGGGGGGAGGGGGAAGGGGCGGG (DNA, backbone and methylation of C not given here; listed as Homo sapiens) [Compound 6914T]	50%	9.10
–	–	AGGGAGGACGCGGGGCCGGGGGGCGGAGACGGG (DNA, backbone and methylation of C not given here; listed as Homo sapiens) [Compound 8716T]	49%	8.51
–	–	GGGGTGGGGGGGAGGG (listed as DNA, chemistry not given here; listed as Homo sapiens) [Compound 13079NT]	37%	8.59
–	–	AGGGACCGGTGGGGCCGGGGCGGGG (DNA, backbone and methylation of C not given here; listed as Homo sapiens) [Compound 3468T]	21%	8.62
–	–	AGGGTTAGGGTTAGGGTTAGGG [hTeI, reference compound]	–	< 7.52
–	–	AGGGGAGGGGGGAGGACGGGGAGCGGGGG (DNA, backbone and methylation of C not given here; listed as Homo sapiens) [Compound 10985T]	35%	9.70
–	–	GGGTCCGGAAGGGGAAGGGTGCCGGCGGGGAGAGAGGGTCGGGGG (DNA, backbone and methylation of C not given here; listed as Homo sapiens) [Compound 7253NT]	60%	9.40
–	–	GGGCCGGGACGGGGTCCGGGG (listed as DNA, chemistry not given here; listed as Homo sapiens) [Compound 13173NT]	–	< 7.52

pIC50 [1]	pIC50 (rRNA synthesis, HCT-116)	Compound	Bmax, percent of active nucleic acid ligand (nucleolin)	pKd (nucleolin)
–	–	AGGGGCGGCGGGGAGGAGGAGGGGCGCGGGG (DNA, backbone and methylation of C not given here; listed as Homo sapiens) [Compound 7370T]	16%	8.96
–	–	TGGGGAGGGTGGGGAGGGTGGGGAATT (DNA, backbone not given here; listed as Homo sapiens) [Myc27, reference compound]	33%	8.36
–	–	GGGCTGGGTCGGTCGGGCTGGGG (listed as DNA, chemistry not given here; listed as Homo sapiens) [Compound 10816NT]	–	< 7.52
–	–	GGGTGGCGGGGGGGAGAGGGGGG (listed as DNA, chemistry not given here; listed as Homo sapiens) [Compound 6960NT]	68%	9.30
6.52	7.30	COc1ccc2c(=O)c(C(=O)NCCN3CCCC3)c3sc4ccccc4n3c2n1 [Compound 9]	–	–
–	–	AGGGGCGGCGGGGGAAGGGAGGGCGGGTGGAGGGGTCGGGAGGAACGGGGGGCGGG (DNA, backbone and methylation of C not given here; listed as Homo sapiens) [Compound 8440T]	35%	9.52
–	–	AGGGGGGAACGGGGGGCGGACGGGGCCGGGGGGGTAGGGCGGGGGG (DNA, backbone and methylation of C not given here; listed as Homo sapiens) [Compound 11345T]	32%	9.52
–	–	AGGGCGCGGGGTGGGGAGGG (DNA, backbone and methylation of C not given here; listed as Homo sapiens) [Compound 10951T]	52%	9.70
–	–	AGGGACGGGGACCGGCGGGCCACGGGG (DNA, backbone and methylation of C not given here; listed as Homo sapiens) [Compound 13236T]	–	< 7.52
–	–	GTCGTAACGTCGATCAGTTTACGACAT (DNA, backbone and methylation of C not given here; listed as Homo sapiens) [RND27, reference compound]	–	< 7.52
–	–	AGGGGCTCCGGGGGCGGGGAGCGGGGCGTGGGCGGGAGGAGGGG (DNA, backbone and methylation of C not given here; listed as Homo sapiens) [Compound 10137T]	65%	9.40
–	–	AGGGAGGGAGACGGGGGGG (DNA, backbone and methylation of C not given here; listed as Homo sapiens) [Compound 5701NT]	84%	8.49
–	–	GGGTGGACGGGGGGGCCTGGTGGGG (listed as DNA, chemistry not given here; listed as Homo sapiens) [Compound 1196NT]	41%	8.38
–	–	AGGGTGGGGCGGGGGAGGGCCGCGAGGGGGGTGCCCCGGGCGTGGGGGGGG (DNA, backbone and methylation of C not given here; listed as Homo sapiens) [Compound 10885T]	82%	9.70
–	–	GGAGGAGGAGGA (DNA, backbone not given here; listed as Homo sapiens) [GGA4, reference compound]	–	< 7.52
–	–	GGGGGCGGGAACCCCCGGGCGCCTGTGGG (DNA, backbone and methylation of C not given here; listed as Homo sapiens) [Compound 6374NT]	47%	8.26
–	–	GGGCGGGGGGGGCGGGGGG (DNA, backbone and methylation of C not given here; listed as Homo sapiens) [Compound 6534NT]	51%	8.96
